For this test, the system named is ID8Cosmc-KO. Kind of test: Survival of ID8Cosmc-KO-bearing mice, PAC-1 and 237 CAR-T combinations. The class given is in vivo, mouse. The settings on record: single agent, PAC-1 100 mg/kg i.p. from day 40, three weeks 5 days ON, 2 days OFF; untreated 71 days; p<0.0001. On the procedure:
FIG. 14A-B. PAC-1 enhanced efficacy of 237 CAR-T in late-stage ovarian cancer model. Survival curves of mice with established ID8Cosmc-KO tumors treated with a combination of PAC-1 and 237 CAR-T in comparison with their single-agent controls. (A) Mice with detectable tumors at day 40 post-tumor inoculation were administered with either PAC-1 (100 mg/kg) or vehicle intraperitoneally for three weeks at a “five days ON, 2 days OFF” treatment schedule. At day 60 post-tumor inoculation, mice were given either 237 CAR-T or mock T cells (5 million cells, >40% transduction efficiency) via i.p. injection. Cyclophosphamide (100 mg/kg, i.p.) were administered 24 hours prior to adoptive T cell transfer to deplete pre-existing lymphocytes. (B) Data were plotted with GraphPad Prism v10 using cumulative data across five independent experiments, with the indicated total n for each treatment arm. Median survival times are indicated; P-values were calculated using the Log-rank (Mantel-Cox) test.
FIG. 15A-B. PAC-1 at day 50 (or day 60) and 237 CAR-T at day 60 combination treatment. […] Median survival times are indicated; P-values were calculated using the Log-rank (Mantel-Cox) test. […]
FIG. 16A-B. 237 CAR-T at day 60 and PAC-1 at day 77 combination treatment. […] Median survival times are indicated; P-values were calculated using the Log-rank (Mantel-Cox) test. […]

As for `C=CCc1cccc(/C=N/NC(=O)CN2CCN(Cc3ccccc3)CC2)c1O` [PAC-1], the median survival was 90 days.

Values taken from patent publication US20260325508A1, “COMBINATION OF PAC-1 AND CAR T-CELL TREATMENTS” (THE BOARD OF TRUSTEES OF THE UNIVERSITY OF ILLINOIS, priority 2023, published 2026).
